Where “and” joins values, the source holds several entries; their conditions need not be identical. Equal values may be shown once. Read-outs that look alike come from different tables or passages of the source.
Assays:
[1] = tested on: A549 cell line; assay: SRB cytotoxicity assay, A549 lung cancer cell line; details: Homo sapiens, A549, 72 h, read-out: Cytotoxicity IC50 value, A549 cell line
Description: (§1) All reagents and chemicals of analytical grade were obtained from Sigma (Dorset, UK); unless stated otherwise. All chemicals, reagents and solvents (of analytical grade) were used directly without further purification. MCF7 cell line ATCC® HTB-22™, T47D cell line ATCC® HTB-133™, K562 cell line ATCC® CCL-243™, Panc1 cell line ATCC® CRL-1469™. A375.S2 cell line ATCC® CRL-1872™, A549 cell line ATCC® CCL-185™, HELA cell line ATCC® CCL-2™ were cultured in Dulbecco’s modified eagle’s medium (DMEM). (DMEM) containing foetal bovine serum (FBS) (Bio Whittaker, Verviers, Belgium), 4-(2-hydroxyethyl)-1-piperazine ethane sulfonic acid (HEPES) Buffer, L-glutamine, gentamicin, penicillin, and streptomycin sulphate (Sigma, St. Luis, MO, USA), trypsin, trypan blue, Ciprofloxacin HCl from Aarti drugs Ltd/India, was a kind gift from Pharma International Company- Amman; Fluconazole from Neopharma, United Arab Emirates, a kind gift from Pharmaceutical Research Unit, Amman; Trypon soya agar (TSA), trypon soya broth (TSB), sabouraud dextrose agar (SDA) were obtained from Liofilchem (Italy) or Oxoid LTD (Basingstoke, England), they were reconstituted and sterilized by autoclave at 121 °C for 15 min.
(§2) The cytotoxicity measurements were determined using Sulforhodamine B (SRB) colorimetric assay for cytotoxicity screening. The mechanism of reduction of cell viability was adopted as described previously (Arabiyat et al., 2016a,b; 2017; Alabsi et al., 2018; Jumah, 2018; AlShahrabi et al., 2020). Human periodontal ligament fibroblasts (PDL) are a primary normal cell culture for verification of selective cytotoxicity. […] Selectivity ratio as indicative factor of the safety of compounds was calculated by dividing IC50 of tested compound on normal fibroblasts by IC50 of the same compound on specific pathological cell line (Hoffman et al., 2011).

[2] = tested on: A375.S2 cell line; assay: SRB cytotoxicity assay, A375.S2 melanoma cell line; details: Homo sapiens, A375-S2, 72 h, read-out: Cytotoxicity IC50 value, A375.S2 cell line
Description: as §1, §2

[3] = tested on: MCF7 cell line; assay: SRB cytotoxicity assay, MCF7 breast cancer cell line; details: Homo sapiens, MCF7, 72 h, read-out: Cytotoxicity IC50 value, MCF7 cell line
Description: as §1, §2

[4] = tested on: HELA cell line; assay: SRB cytotoxicity assay, HELA cervical cancer cell line; details: Homo sapiens, HeLa, 72 h
Description: as §1, §2

[5] = tested on: K562 cell line; assay: SRB cytotoxicity assay, K562 leukaemia cell line; details: for IC50: Homo sapiens, K562, 72 h
Description: as §1, §2

[6] = tested on: PANC 1 cell line; assay: SRB cytotoxicity assay, PANC 1 pancreatic cancer cell line; details: Homo sapiens, PANC-1, 72 h, read-out: Cytotoxicity IC50 value, PANC 1 cell line
Description: as §1, §2

[7] = tested on: T47D cell line; assay: cells; details: Homo sapiens, T47D, 72 h, read-out: Cytotoxicity IC50 value, T47D cell line
Description: as §1, §2

[8] = tested on: PDL Fibroblasts; assay: SRB cytotoxicity on normal periodontal ligament fibroblasts, selective cytotoxicity; format: cell-based, Human; details: for IC50: Homo sapiens, Fibroblast, normal fibroblasts, SRB, 72 h, mean ± SD
Description: as §2

[9] = read-out: Cytotoxicity IC50 value, HELA cell line, SRB, 72 h, 0.1-200 μg/mL range, mean ± SD, value in brackets
[10] = read-out: Cytotoxicity IC50 value, HELA cell line, SRB, 72 h, 0.1-200 μg/mL range, mean ± SD, NI = lack of cytotoxicity in range
[11] = read-out: Cytotoxicity IC50 value, K562 cell line, SRB, 72 h, 0.1-200 μg/mL range, mean ± SD, value in brackets
[12] = read-out: Cytotoxicity IC50 value, K562 cell line, SRB, 72 h, 0.1-200 μg/mL range, mean ± SD, NI = lack of cytotoxicity in range
[13] = 0.1-200 μg/mL range, NI = lack of cytotoxicity in range

Row | Compound | IC50 [1] | IC50 [2] | IC50 [3] | IC50 [4, 9] | IC50 [4, 10] | IC50 [5, 11] | IC50 [5, 12] | IC50 [6] | IC50 [7] | IC50 [8, 13] | IC50 ([8]; value in brackets) | Selectivity index SI (MCF7) ([8]; IC50 on PDL fibroblasts divided by IC50 on MCF7) | Cytotoxicity IC50 value, K562 cell line ([5]; SRB, 72 h, 0.1-200 μg/mL range, mean ± SD, value in brackets) | Selectivity index SI (PANC 1) ([8]; IC50 on PDL fibroblasts divided by IC50 on PANC 1) | Selectivity index SI (A375.S2) ([8]; IC50 on PDL fibroblasts divided by IC50 on A375.S2) | Selectivity index SI (K562) ([8]; IC50 on PDL fibroblasts divided by IC50 on K562)
1 | CCOC(=O)c1cn(C2CC2)c2c([N+](=O)[O-])c(Cl)c(F)cc2c1=O [1E] | 447 µM and 200 µg/mL | 271 µM and 121 µg/mL | 220 µM and 71.9 µg/mL | 43.3 µg/mL | 133 ± 4.78 µM | 32.4 µg/mL | 99.1 ± 7.5 µM | 79.3 µM and 25.9 µg/mL | 108 µM and 35.4 µg/mL |  |  |  |  |  |  | 
2 | COc1ccccc1Nc1c(F)cc2c(=O)c(C(=O)O)cn(C3CC3)c2c1[N+](=O)[O-] [3a, 1-cyclopropyl-6-fluoro-7-(2-methoxy-phenylamino)-8-nitro-4-oxo-1,4-dihydro-quinoline-3-carboxylic acid] |  |  |  |  |  |  |  |  | > 200 µg/mL | 184 ± 3.69 µM | 76 µg/mL | 2.71 |  |  |  | 
3 | COc1cccc(Nc2c(F)cc3c(=O)c(C(=O)O)cn(C4CC4)c3c2[N+](=O)[O-])c1 [3b, 1-cyclopropyl-6-fluoro-7-(3-methoxy-phenylamino)-8-nitro-4-oxo-1,4-dihydro-quinoline-3-carboxylic acid] | > 200 µg/mL | > 200 µg/mL | > 200 µg/mL |  | > 200 µg/mL |  | > 200 µg/mL | > 200 µg/mL | > 200 µg/mL | > 200 µg/mL |  |  |  |  |  | 
4 | COc1ccc(Nc2c(F)cc3c(=O)c(C(=O)O)cn(C4CC4)c3c2[N+](=O)[O-])cc1 [3c, 1-cyclopropyl-6-fluoro-7-(4-methoxy-phenylamino)-8-nitro-4-oxo-1,4-dihydro-quinoline-3-carboxylic acid] | 64.4 µM and 26.6 µg/mL | 274 µM and 113 µg/mL | 54.2 µM and 22.4 µg/mL | 81.7 µg/mL | 198 ± 11.1 µM | 32.7 µg/mL | 79.1 ± 8.69 µM | 40.7 µM and 16.8 µg/mL | 66 µM and 27.3 µg/mL | 107 ± 5.61 µM | 44.3 µg/mL |  | 16.83 ± 0.15 µg/mL | 2.63 |  | 
5 | CCc1ccc(Nc2c(F)cc3c(=O)c(C(=O)O)cn(C4CC4)c3c2[N+](=O)[O-])cc1 [3d, 1-cyclopropyl-6-fluoro-7-(4-ethyl-phenylamino)-8-nitro-4-oxo-1,4-dihydro-quinoline-3-carboxylic acid] | > 200 µg/mL | 372 µM and 153 µg/mL | > 200 µg/mL |  | > 200 µg/mL |  | > 200 µg/mL | > 200 µg/mL | > 200 µg/mL | 728 ± 119 µM | 300 µg/mL |  |  |  | 1.95 | 
6 | CCCCc1ccc(Nc2c(F)cc3c(=O)c(C(=O)O)cn(C4CC4)c3c2[N+](=O)[O-])cc1 [3e, 1-cyclopropyl-6-fluoro-7-(4-butyl-phenylamino)-8-nitro-4-oxo-1,4-dihydro-quinoline-3-carboxylic acid] | 64.2 µM and 28.2 µg/mL | 144 µM and 63.5 µg/mL | 428 µM and 188 µg/mL | 498 µg/mL | 1130 ± 65.6 µM | 0.71 µg/mL | 1.62 ± 0.16 µM | 12.2 µM and 5.38 µg/mL | 406 µM and 178 µg/mL | 711 ± 44.9 µM | 313 µg/mL |  |  |  |  | 439.01
